# Assay results from patent US5972894A, “Peptides having potassium channel opener activity” (Cytran, Inc., priority 1997, dated 1999).
# Residues, ends and D or L forms follow the SMILES beside them.
# Test system: rats
# Test: Arterial blood pressure in anesthetized rats
# Type: in vivo
# Description: White random-bred male rats weighing approximately 200 g were employed for this study. Each dose of each respective test or control substance was administered to a group of five rats. GE and VT were employed as test substances and were administered intravenously at doses of 0.01, 0.1, 1.0, and 10.0 mg/kg. Physiological saline (0.2 ml) served as the negative control substance. The ganglionic blocking agent, pentamine, served as the positive control substance and was tested at a dose of 5 mg/kg. Following administration of the test substance, positive control substance, or negative control substance, the arterial blood pressure of each animal was monitored.
# Prior to administration of the test or control substance, each animal was anesthetized with Chloralose and then both its carotid artery and jugular vein were catheterized. The carotid catheter was connected to an electronic manometer attached to a computer recorder through an analog-to-digital converter. The mean basal level of the arterial blood pressure was determined as follows: For a period of 30 seconds, the digital signal pertaining to the arterial blood pressure was recorded at 1-second intervals. The mean value of these thirty individual measurements was then determined and recorded.
# After determining the mean basal level of the arterial blood pressure, a particular dose of the test or control substance was administered in a volume of 0.2 ml of physiological saline to an animal through the jugular venous catheter. Measurements of the arterial blood pressure were then taken during the next 1.5 hours as follows: (i) during the first 5 minutes, the arterial blood pressure was being monitored continuously and mean values were calculated electronically and recorded at each of the ten different 30-second intervals (i.e., 30th second, 60th second, etc.); (ii) thereafter, mean values of the arterial blood pressure were calculated at the first seconds of 10th minute, 15th minute, 30th minute, 45th minute, 60th minute, 75th minute, and 90th minute after administration of the respective test or control substance.
smiles,measurement,setting,value
"NCC(=O)N[C@@H](CCC(=O)O)C(=O)O [GE, L-Glycyl-L-Glutamic acid] (H-Gly-Glu-OH)",Arterial Blood Pressure (Basal Level = 100.00),"0.01 mg/kg i.v., 1 min",101.02%
same,Arterial Blood Pressure (Basal Level = 100.00),"0.01 mg/kg i.v., 2 min",102.72%
same,Arterial Blood Pressure (Basal Level = 100.00),"0.01 mg/kg i.v., 3 min",103.88%
same,Arterial Blood Pressure (Basal Level = 100.00),"0.01 mg/kg i.v., 4 min",99.77%
same,Arterial Blood Pressure (Basal Level = 100.00),"0.01 mg/kg i.v., 5 min",102.90%
same,Arterial Blood Pressure (Basal Level = 100.00),"0.01 mg/kg i.v., 10 min",96.17%
same,Arterial Blood Pressure (Basal Level = 100.00),"0.01 mg/kg i.v., 15 min",97.01%
same,Arterial Blood Pressure (Basal Level = 100.00),"0.01 mg/kg i.v., 30 min",98.26%
same,Arterial Blood Pressure (Basal Level = 100.00),"0.01 mg/kg i.v., 45 min",99.01%
same,Arterial Blood Pressure (Basal Level = 100.00),"0.01 mg/kg i.v., 60 min",93.29%
same,Arterial Blood Pressure (Basal Level = 100.00),"0.01 mg/kg i.v., 75 min",94.15%
same,Arterial Blood Pressure (Basal Level = 100.00),"0.01 mg/kg i.v., 90 min",102.09%
same,Arterial Blood Pressure (Basal Level = 100.00),"0.1 mg/kg i.v., 1 min",96.00%
same,Arterial Blood Pressure (Basal Level = 100.00),"0.1 mg/kg i.v., 2 min",96.60%
same,Arterial Blood Pressure (Basal Level = 100.00),"0.1 mg/kg i.v., 3 min",97.66%
same,Arterial Blood Pressure (Basal Level = 100.00),"0.1 mg/kg i.v., 4 min",97.32%
same,Arterial Blood Pressure (Basal Level = 100.00),"0.1 mg/kg i.v., 5 min",98.31%
same,Arterial Blood Pressure (Basal Level = 100.00),"0.1 mg/kg i.v., 10 min",96.04%
same,Arterial Blood Pressure (Basal Level = 100.00),"0.1 mg/kg i.v., 15 min",94.98%
same,Arterial Blood Pressure (Basal Level = 100.00),"0.1 mg/kg i.v., 30 min",93.56%
same,Arterial Blood Pressure (Basal Level = 100.00),"0.1 mg/kg i.v., 45 min",80.15%
same,Arterial Blood Pressure (Basal Level = 100.00),"0.1 mg/kg i.v., 60 min",83.03%
same,Arterial Blood Pressure (Basal Level = 100.00),"0.1 mg/kg i.v., 75 min",83.37%
same,Arterial Blood Pressure (Basal Level = 100.00),"0.1 mg/kg i.v., 90 min",84.50%
same,Arterial Blood Pressure (Basal Level = 100.00),"1.0 mg/kg i.v., 1 min",70.32%
same,Arterial Blood Pressure (Basal Level = 100.00),"1.0 mg/kg i.v., 2 min",84.63%
same,Arterial Blood Pressure (Basal Level = 100.00),"1.0 mg/kg i.v., 3 min",90.73%
same,Arterial Blood Pressure (Basal Level = 100.00),"1.0 mg/kg i.v., 4 min",93.72%
same,Arterial Blood Pressure (Basal Level = 100.00),"1.0 mg/kg i.v., 5 min",98.11%
same,Arterial Blood Pressure (Basal Level = 100.00),"1.0 mg/kg i.v., 10 min",94.67%
same,Arterial Blood Pressure (Basal Level = 100.00),"1.0 mg/kg i.v., 15 min",92.70%
same,Arterial Blood Pressure (Basal Level = 100.00),"1.0 mg/kg i.v., 30 min",90.58%
same,Arterial Blood Pressure (Basal Level = 100.00),"1.0 mg/kg i.v., 45 min",88.43%
same,Arterial Blood Pressure (Basal Level = 100.00),"1.0 mg/kg i.v., 60 min",88.85%
same,Arterial Blood Pressure (Basal Level = 100.00),"1.0 mg/kg i.v., 75 min",90.07%
same,Arterial Blood Pressure (Basal Level = 100.00),"1.0 mg/kg i.v., 90 min",89.82%
same,Arterial Blood Pressure (Basal Level = 100.00),"10.0 mg/kg i.v., 1 min",94.68%
same,Arterial Blood Pressure (Basal Level = 100.00),"10.0 mg/kg i.v., 2 min",100.17%
same,Arterial Blood Pressure (Basal Level = 100.00),"10.0 mg/kg i.v., 3 min",101.63%
same,Arterial Blood Pressure (Basal Level = 100.00),"10.0 mg/kg i.v., 4 min",101.22%
same,Arterial Blood Pressure (Basal Level = 100.00),"10.0 mg/kg i.v., 5 min",100.20%
same,Arterial Blood Pressure (Basal Level = 100.00),"10.0 mg/kg i.v., 10 min",95.61%
same,Arterial Blood Pressure (Basal Level = 100.00),"10.0 mg/kg i.v., 15 min",91.27%
same,Arterial Blood Pressure (Basal Level = 100.00),"10.0 mg/kg i.v., 30 min",88.24%
same,Arterial Blood Pressure (Basal Level = 100.00),"10.0 mg/kg i.v., 45 min",89.56%
same,Arterial Blood Pressure (Basal Level = 100.00),"10.0 mg/kg i.v., 60 min",85.99%
same,Arterial Blood Pressure (Basal Level = 100.00),"10.0 mg/kg i.v., 75 min",87.12%
same,Arterial Blood Pressure (Basal Level = 100.00),"10.0 mg/kg i.v., 90 min",78.69%
same,effect on mean arterial blood pressure,after about 60 to 90 minutes,"moderate, but delayed, decrease in the mean arterial blood pressure"
